In US12503455B2, “Nucleic acid-binding photoprobes and uses thereof” (Arrakis Therapeutics, Inc., priority 2017, dated 2025):

System: Aptamer 21 RNA
Assay: Online SEC-LCMS binding to Aptamer 21 RNA
Conditions: for % of binding: RNA 1 uM
Description: Online SEC-LCMS has been used to study the binding to Aptamer 21 RNA against I-1 (ARK-139).
The RNA concentration was 1 μM and the ligand concentration ranged from 0.1 to 10 μM in an appropriate buffer (TRIS-HCl 20 mM pH 8.0, MgCl2 3 mM, KCl 100 mM).
The RNA/ligand mixtures were incubated at room temperature for 20 minutes in a 96-well plate format, then this plate was loaded into an autosampler linked to the chromatography system fitted with a reusable SEC column for rapid separation of target/ligand complexes from unbound components. RNA/ligand complexes in SEC eluent were monitored by UV detection, and an automated valving system directed the RNA peak to a reverse phase chromatography column for dissociation, desalting, and elution of any ligands into an ESI-MS system for identification.
All liquid chromatographic components were HP1200 modules. The mass spectrometer was the Waters LCT premier instrument operated in positive electrospray (ES+) TOF-MS mode. The mass range acquired was 80-1000 m/z in 0.25 s. The SEC column was 50×4.6 mm polyhydroxyethyl column. The SEC mobile phase was 50 mM phosphate buffer with 200 mM NaCl, pH=7.0. The LC column was a 2.1×50 mm C18 Phenomenex column. The gradient LC mobile phase A was 0.1% formic acid in water and B was acetonitrile/water with 0.1% formic acid. The run time was 7.9 min.
Binding of I-1 to Aptamer 21 was measured. SEC/LCMS conditions for this experiment were: [I-1]=5 uM, [RNA]=1 uM, Buffer=Tris-HCl 20 mM, KCl 100 mM, 3 mM MgCl2.

% of binding (ARK-000139 conc 0.1 μM): 72.5%
% of binding (ARK-000139 conc 0.5 μM): 36.5%
% of binding (ARK-000139 conc 1 μM): 33.6%
% of binding (ARK-000139 conc 3 μM): 22.4%
% of binding (ARK-000139 conc 10 μM): 8.9%
binding to Aptamer 21 by SEC-MS (data not shown): confirmed
Structure (SMILES): COC(=O)C1=C(COCc2cn(CCOCCOCCO)nn2)NC(c2ccncc2)=NC1c1ccc(F)cc1Cl (racemic) [I-1]
